Measured values: patent US20240342292A1, “Compounds for the Degradation of EGFR Kinase” (BeiGene Switzerland GmbH, priority 2021, published 2024)

Tests used:
[1] = molecular target: T1, L858R/T790M/C797S EGFR (Homo sapiens, UniProt P00533, C797S/L858R/T790M); experiment: EGFR degradation HTRF assay in H1975-clone #25 (LTC) cells; type: cell-based; conditions: 16h treatment; for DC50: H1975 # 25-LTC (L858R/T790M/C797S), HTRF; for Dmax: NCI-H1975, H1975 # 25-LTC (L858R/T790M/C797S), maximum percentage of degradation
T1 construct: expressed in transfected cells; host or cells: H1975 clone #25 (lentiviral over-expression, endogenous EGFR knocked out by sgRNA)
From the text: (§1) H1975-clone #28(Del19/T790M/C797S, or abbr: DTC), H1975-clone #23(Del19/C797S, or abbr: DC), H1975-clone #25(L858R/T790M/C797S, or abbr: LTC) and H1975-clone #8 (L858R/C797S, or abbr: LC). EGFR-Del19:T790M/C797S, EGFR-Del19/C797S, EGFR-L858R/T790M/C797S and EGFR-L858R/C797S were stably expressed in H1975 cell lines by lentivirus-mediated over-expression, respectively. The EGFR over-expressed cells then underwent knockout, in which the EGFR targeting sgRNA was designed to only target the endogenous EGFR copies and preserve the exogenous EGFR copies. Followed by the knockout, the edited H1975 cells were seeded in 96 well plates at the concentration of […], cultured for about 2 weeks to allow single clones formation. The formed clones were screened by DNA sequencing and whole exon sequencing analysis for the desired edition. H1975-clone #28, H1975-clone #23, H1975-clone #25 and H1975-clone #8 were finally confirmed as homozygous Del19/T790M/C797S EGFR, Dell9/C797S EGFR, L858R/T790M/C797S EGFR and L858R/C797S EGFR clones, respectively.
(§2) H1975-#25, H1975-#28, H1975-#23 and H1975-#8 cells are treated with compounds diluted in 0.2% DMSO cell culture medium on day 2, incubate for 16h, 37° C., 5% CO2. the final concentration of compounds in all assay is start with 10 uM, 5-fold dilution, total 8 doses were included.
(§3) After 16h treatment, add HTRF lysis buffer to each well; seal the plate and incubate 1 hour at room temperature on a plate shaker; Once the cells are lysed, 16 μL of cell lysate are transferred to a PE 384-well HTRF detection plate; 4 μL of pre-mixed HTRF antibodies are added to each well; Cover the plate with a plate sealer, spin 1000 rpm for 1 min, Incubate overnight at room temperature; Read on BMG PheraStar with HTRF protocol (337 nm-665 nm-620 nm).
(§4) The IC50 (DC50) value of a compound can be obtained by fitting the following equation
(§5) Y=Bottom+(TOP−Bottom)/(1+((IC50/X)^hillslope))
(§6) Wherein, X and Y are known values, and IC50, Hillslope, Top and Bottom are the parameters obtained by fitting with software. Y is the inhibition percentage (calculated from the equation), X is the concentration of the compound: IC50 is the concentration of the compound when the 50% inhibition is reached. The smaller the IC50 value is, the stronger the inhibitory ability of the compound is. Vice versa, the higher the IC50 value is, the weaker the ability the inhibitory ability of the compound is: Hillslope represents the slope of the fitted curve, generally around 1*; Bottom represents the minimum value of the curve obtained by data fitting, which is generally 0%±20%; Top represents the maximum value of the curve obtained by data fitting, which is generally 100%±20%. The experimental data were fitted by calculating and analyzing with Dotmatics data analysis software.

[2] = system: Del19/T790M/C797S EGFR; experiment: EGFR degradation HTRF assay in H1975-clone #28 (DTC) cells; type: cell-based; conditions: H1975 # 28 DTC (Del19/T790M/C797S), 16h treatment; for DC50: HTRF; for Dmax (%): maximum percentage of degradation
From the text: as §1, §2, §3, §4, §5, §6

T1 sequence (P00533 25-1210 T790M/C797S/L858R): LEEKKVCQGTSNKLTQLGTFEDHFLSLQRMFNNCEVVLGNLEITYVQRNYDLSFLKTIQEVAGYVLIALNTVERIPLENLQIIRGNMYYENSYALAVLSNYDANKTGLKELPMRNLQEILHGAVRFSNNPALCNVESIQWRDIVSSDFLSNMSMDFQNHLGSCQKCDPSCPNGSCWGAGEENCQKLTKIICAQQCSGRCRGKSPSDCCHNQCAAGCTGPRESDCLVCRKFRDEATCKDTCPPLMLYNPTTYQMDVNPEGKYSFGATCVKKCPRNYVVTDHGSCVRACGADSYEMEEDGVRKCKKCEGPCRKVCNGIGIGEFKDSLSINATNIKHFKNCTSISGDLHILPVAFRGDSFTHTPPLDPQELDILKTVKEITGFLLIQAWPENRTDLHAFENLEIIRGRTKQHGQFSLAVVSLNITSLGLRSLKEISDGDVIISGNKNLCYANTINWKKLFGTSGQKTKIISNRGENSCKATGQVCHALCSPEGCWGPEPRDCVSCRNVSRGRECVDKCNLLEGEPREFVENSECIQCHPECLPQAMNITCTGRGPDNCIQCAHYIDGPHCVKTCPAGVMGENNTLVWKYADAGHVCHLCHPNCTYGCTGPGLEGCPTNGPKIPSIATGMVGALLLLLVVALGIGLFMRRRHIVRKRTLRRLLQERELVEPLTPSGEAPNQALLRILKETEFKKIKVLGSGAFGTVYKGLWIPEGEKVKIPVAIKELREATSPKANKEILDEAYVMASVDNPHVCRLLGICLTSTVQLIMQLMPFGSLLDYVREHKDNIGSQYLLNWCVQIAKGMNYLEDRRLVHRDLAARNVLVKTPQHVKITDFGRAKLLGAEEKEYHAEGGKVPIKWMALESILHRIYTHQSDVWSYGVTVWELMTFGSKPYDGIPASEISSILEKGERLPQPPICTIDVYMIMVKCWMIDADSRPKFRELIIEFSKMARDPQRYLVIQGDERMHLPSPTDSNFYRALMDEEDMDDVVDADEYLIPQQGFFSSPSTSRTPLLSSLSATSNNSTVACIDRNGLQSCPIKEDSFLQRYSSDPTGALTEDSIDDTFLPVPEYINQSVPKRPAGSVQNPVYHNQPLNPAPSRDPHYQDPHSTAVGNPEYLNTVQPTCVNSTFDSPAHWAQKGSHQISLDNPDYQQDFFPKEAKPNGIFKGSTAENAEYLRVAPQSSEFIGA

**Q.** For `Cc1cc2cc(n1)-c1cnn(C)c1OCCC[C@@H](C)CN1/C(=N/C2=O)Nc2ccc(CN3CCC4(CC3)CN(CCc3cc(F)c([C@H]5CCC(=O)NC5=O)c(F)c3)C4)cc21` [Example 23, (R)-3-(2,6-difluoro-4-(2-(7-(((R,E)-1^1,2^6,7-trimethyl-3-oxo-5^2,5^3-dihydro-1^1H,5^1H-11-oxa-4-aza-5(2,1)-benzo[d]imidazola-2(2,4)-pyridina-1(4,5)-pyrazolacycloundecaphane-5^6-yl)methyl)-2,7-diazaspiro[3.5]nonan-2-yl)ethyl)phenyl)piperdine-2,6-dione], which DC50 [1] is on record?
**A.** The DC50 was 2300 pM.

**Q.** What about the Dmax [1] of the same compound?
**A.** The Dmax was 91.8%.

**Q.** And the DC50 [2]?
**A.** Its DC50 is 2100 pM.

**Q.** What about the “Dmax (%)” value [2] of the same compound?
**A.** Its value is 78.0%.

**Q.** Which DC50 [1] does the source give for `Cc1cc2cc(n1)-c1c(C(F)F)nn(C)c1OCCC[C@@H](C)CN1/C(=N/C2=O)Nc2ccc(CN3CCN(C(=O)C4CN(c5cc(F)c([C@H]6CCC(=O)NC6=O)c(F)c5)C4)CC3)cc21` [Example 64, (R)-3-(4-(3-(4-(((R,E)-13-(difluoromethyl)-1^1,2^6,7-trimethyl-3-oxo-5^2,5^3-dihydro-1^1H,5^1H-11-oxa-4-aza-5(2,1)-benzo[d]imidazola-2(2,4)-pyridina-1(4,5)-pyrazolacycloundecaphane-5^6-yl)methyl)piperazine-1-carbonyl)azetidin-1-yl)-2,6-difluorophenyl)piperidine-2,6-dione] here?
**A.** Its DC50 is 3130 pM.

**Q.** What about the Dmax [1] of the same compound?
**A.** Its Dmax is 76.8%.

**Q.** And the DC50 [2]?
**A.** The DC50 was 1510 pM.

**Q.** And the “Dmax (%)” value [2]?
**A.** The value was 80.65%.

**Q.** Which DC50 [1] does the source give for `Cc1cc2cc(n1)-c1cnn(C)c1OCCC[C@@H](C)CN1/C(=N/C2=O)Nc2ccc(C3CCN(CCc4cc(F)c([C@H]5CCC(=O)NC5=O)c(F)c4)CC3)cc21` [Example 330, (R)-3-(2,6-difluoro-4-(2-(4-((R,E)-1^1,2^6,7-trimethyl-3-oxo-5^2,5^3-dihydro-1^1H,5^1H-11-oxa-4-aza-5(2,1)-benzo[d]imidazola-2(2,4)-pyridina-1(4,5)-pyrazolacycloundecaphane-5^6-yl)piperidin-1-yl)ethyl)phenyl)piperidine-2,6-dione] here?
**A.** Its DC50 is 972 pM.

**Q.** And the Dmax [1]?
**A.** Its Dmax is 87.1%.

**Q.** What about the DC50 [2] of the same compound?
**A.** The DC50 was 633 pM.

**Q.** And the “Dmax (%)” value [2]?
**A.** The value was 66.1%.

**Q.** For `Cc1cc2cc(n1)-c1cnn(C)c1OCCC[C@@H](C)CN1/C(=N/C2=O)Nc2ccc(N3CCN(C4CCN(c5cc(F)c([C@H]6CCC(=O)NC6=O)c(F)c5)CC4)[C@H](C)C3)cc21` [Example 388, (R)-3-(2,6-difluoro-4-(4-((R)-2-methyl-4-((R,E)-1^1,2^6,7-trimethyl-3-oxo-5^2,5^3-dihydro-1^1H,5^1H-11-oxa-4-aza-5(2,1)-benzo[d]imidazola-2(2,4)-pyridina-1(4,5)-pyrazolacycloundecaphane-5^6-yl)piperazin-1-yl)piperidin-yl)phenyl)piperidine-2,6-dione], which DC50 [1] is on record?
**A.** Its DC50 is 1110 pM.

**Q.** What about the Dmax [1] of the same compound?
**A.** The Dmax was 86.5%.

**Q.** And the DC50 [2]?
**A.** Its DC50 is 776 pM.

**Q.** What about the “Dmax (%)” value [2] of the same compound?
**A.** The value was 80.94%.

**Q.** Which results are given for `Cc1cc2cc(n1)-c1cnn(C)c1OCCC[C@@H](C)CN1/C(=N/C2=O)Nc2ccc(C(=O)N[C@H]3CCN(CCc4cc(F)c([C@H]5CCC(=O)NC5=O)c(F)c4)CC3(F)F)cc21` [Example 337, (R,E)-N—((S)-1-(4-((R)-2,6-dioxopiperidin-3-yl)-3,5-difluorophenethyl)-3,3-difluoropiperidin-4-yl)-1^12^6,7-trimethyl-3-oxo-5^2,5^3-dihydro-1^1H,5^1H-11-oxa-4-aza-5(2,1)-benzo[d]imidazola-2(2,4)-pyridina-1(4,5)-pyrazolacycloundecaphane-5^6-carboxamide]?
**A.** DC50 [1]: 535 pM; Dmax [1]: 92%; DC50 [2]: 608 pM; Dmax (%) [2]: 79.69%

**Q.** With `Cc1cc2cc(n1)-c1cnn(C)c1OCCC[C@@H](C)CN1/C(=N/C2=O)Nc2ccc(CN3CC4(CCN(C(=O)[C@@H]5CCN(c6cc(F)c([C@H]7CCC(=O)NC7=O)c(F)c6)C5)CC4)C3)cc21` [Example 84, (R)-3-(2,6-difluoro-4-((R)-3-(2-(((R,E)-1^1,2^6,7-trimethyl-3-oxo-5^2,5^3-dihydro-1^1H,5^1H-11-oxa-4-aza-5(2,1)-benzo[d]imidazola-2(2,4)-pyridina-1(4,5)-pyrazolacycloundecaphane-5^6-yl)methyl)-2,7-diazaspiro[3.5]nonane-7-carbonyl)pyrrolidin-1-yl)phenyl)piperidine-2,6-dione] as the compound, how does the DC50 [1] read?
**A.** Its DC50 is 2900 pM.

**Q.** What about the Dmax [1] of the same compound?
**A.** The Dmax was 92.7%.

**Q.** What about the DC50 [2] of the same compound?
**A.** The DC50 was 800 pM.

**Q.** What about the “Dmax (%)” value [2] of the same compound?
**A.** Its value is 86.1%.

**Q.** How did the DC50 [1] turn out when `Cc1cc2cc(n1)-c1cnn(C)c1OCCC[C@@H](C)CN1/C(=N/C2=O)Nc2ccc(C(=O)N(C)C3CCN(CCc4cccc5c4C(C)(C)C(=O)N5C4CCC(=O)NC4=O)CC3)cc21` (stereo partly drawn) [Example 317, (7R,E)-N-(1-(2-(1-(2,6-dioxopiperidin-3-yl)-3,3-dimethyl-2-oxoindolin-4-yl)ethyl)piperidin-4-yl)-N,1^1,2^6,7-tetramethyl-3-oxo-5^2,5^3-dihydro-1^1H,5^1H-11-oxa-4-aza-5(2,1)-benzo[d]imidazola-2(2,4)-pyridina-1(4,5)-pyrazolacycloundecaphane-5^6-carboxamide] was run?
**A.** The DC50 was 1140 pM.

**Q.** What about the Dmax [1] of the same compound?
**A.** The Dmax was 80.2%.

**Q.** And the DC50 [2]?
**A.** Its DC50 is 728 pM.

**Q.** And the “Dmax (%)” value [2]?
**A.** Its value is 52.86%.

**Q.** Which results are given for `Cc1cc2cc(n1)-c1cnn(C)c1OCCC[C@@H](C)CN1/C(=N/C2=O)Nc2ccc(C(=O)N(C)[C@@H]3CCN(CCc4cc(F)c([C@H]5CCC(=O)NC5=O)c(F)c4)C[C@H]3C)cc21` [Example 257, (R,E)-N—((3R,4R)-1-(4-((R)-2,6-dioxopiperidin-3-yl)-3,5-difluorophenethyl)-3-methylpiperidin-4-yl)-N,1^1,2^6,7-tetramethyl-3-oxo-5^2,5^3-dihydro-1^1H,5^1H-11-oxa-4-aza-5(2,1)-benzo[d]imidazola-2(2,4)-pyridina-1(4,5)-pyrazolacycloundecaphane-5^6-carboxamide]?
**A.** DC50 [1]: 512 pM; Dmax [1]: 88%; DC50 [2]: 570 pM; Dmax (%) [2]: 80.82%

**Q.** How did the DC50 [1] turn out when `Cc1cc2cc(n1)-c1cnn(C)c1OCCC[C@@H](C)CN1/C(=N/C2=O)Nc2ccc(C(=O)N3CCC4(CC3)CN(CCc3cc(F)c([C@H]5CCC(=O)NC5=O)c(F)c3)C4)cc21` [Example 310, (R)-3-(2,6-difluoro-4-(2-(7-((R,E)-1^1,2^6,7-trimethyl-3-oxo-5^2,5^3-dihydro-1^1H,5^1H-11-oxa-4-aza-5(2,1)-benzo[d]imidazola-2(2,4)-pyridina-1(4,5)-pyrazolacycloundecaphane-5^6-carbonyl)-2,7-diazaspirononan-2-yl)ethyl)phenyl)piperidine-2,6-dione] was run?
**A.** The DC50 was 464 pM.

**Q.** What about the Dmax [1] of the same compound?
**A.** The Dmax was 87.8%.

**Q.** And the DC50 [2]?
**A.** Its DC50 is 578 pM.

**Q.** What about the “Dmax (%)” value [2] of the same compound?
**A.** Its value is 80.51%.

**Q.** Which DC50 [1] does the source give for `Cc1cc2cc(n1)-c1cnn(C)c1OCCC[C@@H](C)CN1/C(=N/C2=O)Nc2ccc(C(=O)N3CC[C@H](N(C)CCc4cc(F)c([C@H]5CCC(=O)NC5=O)c(F)c4)C3)cc21` [Example 297, (R)-3-(2,6-difluoro-4-(2-(methyl((S)-1-((R,E)-1^1,2^6,7-trimethyl-3-oxo-5^2,5^3-dihydro-1^1H,5^1H-11-oxa-4-aza-5(2,1)-benzo[d]imidazola-2(2,4)-pyridina-1(4,5)-pyrazolacycloundecaphane-5^6-carbonyl)pyrrolidin-3-yl)amino)ethyl)phenyl)piperidine-2,6-dione] here?
**A.** The DC50 was 432 pM.

**Q.** What about the Dmax [1] of the same compound?
**A.** The Dmax was 91.7%.

**Q.** And the DC50 [2]?
**A.** The DC50 was 292 pM.

**Q.** What about the “Dmax (%)” value [2] of the same compound?
**A.** The value was 79.64%.
